Key:
renal cancer (RXF 1220) = experiment: RXF 1220 patient-derived tumor xenograft growth in nude mice; format: in vivo; conditions: BI-1 13.6 mg/kg i.p. twice weekly, Sunitinib 40 mg/kg once daily, Bevacizumab 15 mg/kg i.p. twice weekly
Source text: (§1) The goal of the present study was to assess the efficacy of BI-1 in combination with Bevacizumab, BIBF1120 or Sunitinib in models of human non small cell lung cancer (LXFE 211, LXFE 1422), colon cancer (CXF 243), mammary cancer (MAXF 401), ovarian cancer (OVXF 1353), pancreatic cancer (PAXF 546) and renal cancer (RXF 1220) in nude mice. All models were patient-derived tumor xenografts (PDX), which were transplanted from patients to nude mice and passaged subcutaneously. These models retain most of the characteristics of the parental patient tumors including histology.
(§2) BI-1 with the sample ID number D11B20V503 was used for this experiment and diluted with PBS. BIBF1120 with the batch chiffre 133562 was suspended in Natrosol 0.5% (Hydroxyethylcellulose Natrosol 250 HX, VWR). […]
(§3) Tumor fragments were obtained from tumor xenografts in serial passage in nude mice. […] Mice were monitored daily. […]
(§4) The doses of BI-1 and Bevacizumab were calculated to the average body weight of all mice on day 1 (28 g) and administered intraperitoneally twice weekly in a volume of 100 μl per mouse. […]
(§5) Tumor diameters were measured twice weekly with a caliper. The volume of each tumor [in mm^3] was calculated according to the formula “tumor volume=length*diameter^2*0.5.” To monitor side effects of treatment, mice were inspected daily for abnormalities and body weight was determined twice weekly. […]

[1] = test system: human non-small cell lung cancer (NCI-H1975); experiment: Subcutaneous NCI-H1975 xenograft tumor growth in nude mice; format: in vivo; conditions: day 14, 2.5 cycles; Bevacizumab 25 mg/kg i.p. twice weekly, BIBF 1120 50 mg/kg p.o. daily, BI-1 13.6 mg/kg i.p. twice weekly
Source text: The goal of the present study was to assess the efficacy of BI-1 in combination with Bevacizumab and BIBF 1120 in a model of human non small cell lung cancer (NCI-H1975) in nude mice.
• Model: Subcutaneous xenografts of the human non-small cell lung cancer (NCI-H1975) growing in nude mice
BI-1 with the sample ID number D11B20V503 was used for this experiment and diluted with PBS. BIBF 1120 with the batch chiffre 133562 was suspended in Natrosol 0.5% (Hydroxyethylcellulose Natrosol 250 HX, VWR).
Avastin® (Bevacizumab, 25 mg/ml) was purchased from Roche (Basel, Switzerland), (dissolved in 0.9% saline) was diluted with 0.9% saline.
Mice were 7 week-old female BomTac:NMRI-Foxn1nu purchased from Taconic, Denmark. After arrival, mice were allowed to adjust to ambient conditions for at least 5 days before they were used for the experiments. […]
as §4
Tumor diameters were measured three times a week (Monday, Wednesday and Friday) with a caliper. The volume of each tumor [in mm3] was calculated according to the formula “tumor volume=length*diameter2*π/6.” To monitor side effects of treatment, mice were inspected daily for abnormalities and body weight was determined three times a week (Monday, Wednesday and Friday). […]

[2] = test system: human non small cell lung cancer (LXFE 211); experiment: LXFE 211 patient-derived tumor xenograft growth in nude mice; format: in vivo; conditions: BI-1 13.6 mg/kg i.p. twice weekly, BIBF1120 50 mg/kg p.o. once daily, Bevacizumab 15 mg/kg i.p. twice weekly
Source text: as §1, §2, §3, §4, §5

[3] = test system: human non small cell lung cancer (LXFE 1422); experiment: LXFE 1422 patient-derived tumor xenograft growth in nude mice; format: in vivo; conditions: BI-1 13.6 mg/kg i.p. twice weekly, BIBF1120 50 mg/kg p.o. once daily, Bevacizumab 15 mg/kg i.p. twice weekly
Source text: as §1, §2, §3, §4, §5

[4] = test system: mammary cancer (MAXF 401); experiment: MAXF 401 patient-derived tumor xenograft growth in nude mice; format: in vivo; conditions: BI-1 13.6 mg/kg i.p. twice weekly, BIBF1120 50 mg/kg p.o. once daily, Bevacizumab 15 mg/kg i.p. twice weekly
Source text: as §1, §2, §3, §4, §5

[5] = test system: pancreatic cancer (PAXF 546); experiment: PAXF 546 patient-derived tumor xenograft growth in nude mice; format: in vivo; conditions: BI-1 13.6 mg/kg i.p. twice weekly, BIBF1120 50 mg/kg p.o. once daily, Bevacizumab 15 mg/kg i.p. twice weekly
Source text: as §1, §2, §3, §4, §5

[6] = Body weight losses and deaths in PDX tumor-bearing mice; design: species or system nude mice; conditions: mouse, in vivo
Procedure: Tumor diameters were measured twice weekly with a caliper. The volume of each tumor [in mm^3] was calculated according to the formula “tumor volume=length*diameter^2*0.5.” To monitor side effects of treatment, mice were inspected daily for abnormalities and body weight was determined twice weekly. Animals with tumor sizes exceeding 1.5 cm in diameter or 20% body weight loss were euthanized for ethical reasons.

colon cancer (CXF 243) = experiment: CXF 243 patient-derived tumor xenograft growth in nude mice; format: in vivo; conditions: BI-1 13.6 mg/kg i.p. twice weekly, BIBF1120 50 mg/kg p.o. once daily, Bevacizumab 15 mg/kg i.p. twice weekly
Source text: as §1, §2, §3, §4, §5

[7] = test system: ovarian cancer (OVXF 1353); experiment: OVXF 1353 patient-derived tumor xenograft growth in nude mice; format: in vivo; conditions: BI-1 13.6 mg/kg i.p. twice weekly, BIBF1120 50 mg/kg p.o. once daily
Source text: as §1, §2, §3, §4, §5

Compound	TGI [%] (renal cancer (RXF 1220))	median TGI [1] [%]	TGI [%] [2] [%]	TGI [%] [3] [%]	TGI [%] [4] [%]	TGI [%] [5] [%]	maximum median body weight loss [6] [%]	TGI [%] (colon cancer (CXF 243))	TGI [%] [7] [%]
CCN(CC)CCNC(=O)c1c(C)[nH]c(/C=C2\C(=O)Nc3ccc(F)cc32)c1C [Sunitinib]	62								
Bevacizumab: VEGF-neutralizing antibody A4.6.1, also called bevacizumab (Avastin®)		82	37	63	68	59	9.1		
CCS(=O)(=O)O.COC(=O)c1ccc2c(c1)NC(=O)/C2=C(\Nc1ccc(N(C)C(=O)CN2CCN(C)CC2)cc1)c1ccccc1 [BIBF1120, 3-Z-[1-(4-(N-((4-methyl-piperazin-1-yl)-methylcarbonyl)-N-methyl-amino)-anilino)-1-phenyl-methylen]-6-methoxycarbonyl-2-indolinon-monoethanesulfonate]		75	40	57	63	69	5.9	65	78
